# Source: patent US12427134B2, “Methods of reducing the risk of cardiovascular events in a subject with atrial fibrillation and/or atrial flutter” (priority 2019, dated 2025)
# System: hypertriglyceridemic patients with cardiovascular disease or at high risk for cardiovascular disease
# Assay: REDUCE-IT: subgroup analyses of the primary and key secondary endpoints
# Type: in vivo, human
# Conditions: for Primary endpoint, patients with event (%) / Time to primary endpoint, HR (95% CI) AMR101/Placebo / Primary endpoint, patients with event n/N: ITT
# Protocol: Exploratory Subgroup Analyses: Analyses of the effects that patients off study drug and withdrawn from study have on the primary endpoint were performed. Subgroup analyses of the primary and key secondary endpoints were performed as described for the primary endpoint. For each subgroup, Kaplan-Meier estimates, the log-rank test stratified by stratification factors used at randomization (except where the subgroup was a stratification factor), and HRs and CIs from the Cox proportional hazards model as specified for the primary efficacy endpoint, were summarized by treatment group. Demographic, disease, treatment, and baseline lipid and lipoproteins parameters were explored.
# Demographic parameters included: Gender; age at baseline (<65 years and ≥65 years); race (white and nonwhite, or any other subset with at least 10% of the total number of patients); geographical region (Westernized, Eastern European, and Asia Pacific countries); and baseline ezetimibe use (yes/no).
# Disease parameters included: CV risk category; the presence/absence of diabetes at baseline; and renal dysfunction at baseline (estimated glomerular filtration rate [eGFR]<60 mL/min/1.73 m^2) using the Chronic Kidney Disease Epidemiology Collaboration (CKD-EPI) equation as follows: eGFR=141×min(Scr/κ,1)^α×max(Scr/κ,1)^[…]^Age×1.018 [if female]×1.159 [if black]
# Treatment Parameters included: Statin intensity at baseline (statin type and regimen); and statin intensity categories as defined in ACC/AHA Cholesterol Guidelines (Stone 2013) and patient's 10-year CV Risk Score (Goff 2013).
# Baseline Lipid and Lipoprotein Parameter included: LDL-C (by tertile); HDL-C (by tertile, and tertile by gender); TG (by tertile, and tertile by gender); RLP-C (by tertile); TG ≥150 mg/dL and TG <150 mg/dL; TG ≥200 mg/dL and TG <200 mg/dL; TG ≥median, TG <median; combined highest tertile for TG and lowest tertile for HDL-C; gender-specific highest tertile for TG and lowest tertile for HDL-C; TG ≥200 mg/dL with HDL-C ≤35 mg/dL; hsCRP (≤3 mg/L and >3 mg/L) and by gender; hsCRP (≤2 mg/L and >2 mg/L) and by gender; Apo B (by tertile); non-HDL-C (by tertile); baseline hemoglobin A1c (Hb1c) value (<6.5%, ≥6.5%); baseline PAD; and baseline TG levels ≥150 mg/dL with high-density lipoprotein cholesterol (HDL-C) levels ≤40 mg/dL for males and ≤50 mg/dL for females.
# A Cox proportional hazard (PH) model as mentioned above but additionally with baseline TG as a covariate were fitted to the data at each interim. Diagnostic plots for the PH assumption were evaluated. The consistency of the treatment effects in subgroups was assessed for the primary and key secondary efficacy endpoints. For each subgroup variable, a Cox PH model with terms for treatment, stratification factors (with the exception of those subgroup variables related to the stratification factors, i.e., CV risk category), subgroup, and treatment-by-subgroup interaction were performed. The main treatment effect was tested with this model. P-values for testing the interaction terms <0.15 were considered significant. Results were presented in a Forest plot.
# Subgroup analyses of the primary and key secondary endpoints were performed as described for the primary endpoint. For each subgroup, Kaplan-Meier estimates, the log-rank test stratified by stratification factors used at randomization (except where the subgroup was a stratification factor), and HRs and CIs from the Cox proportional hazards model as specified for the primary efficacy endpoint, were summarized by treatment group. All subgroup analyses were conducted for the ITT, mITT and PP populations.
# Of note regarding the following subgroup analyses, per study design, subgroup analyses are underpowered to detect statistically significant results within each individual subgroup, particularly when a subgroup represents less than 50% of the enrolled population, and when a subgroup has low event rates. […]
# [1] = Baseline TG <150 mg/dL or HDL-C >40 mg/dL (Males) or >50 mg/dL (Females)
# [2] = Baseline TG ≥150 mg/dL and HDL-C ≤40 mg/dL (Males) or ≤50 mg/dL (Females)
# [3] = Females, Baseline hsCRP >2 mg/L
# [4] = Females, Baseline hsCRP ≤2 mg/L
# [5] = Females, HDL-C Highest Tertile (>48 to ≤96.5 mg/dL)
# [6] = Females, HDL-C Lowest Tertile (≥21 to ≤41 mg/dL)
# [7] = Females, HDL-C Middle Tertile (>41 to ≤48 mg/dL)
# [8] = Females, Highest tertile for baseline TG and lowest tertile for baseline HDL-C (No)
# [9] = Females, Highest tertile for baseline TG and lowest tertile for baseline HDL-C (Yes)
# [10] = Females, TG Highest Tertile (>241.5 to ≤1401 mg/dL)
# [11] = Females, TG Lowest Tertile (≥92.5 to ≤186 mg/dL)
# [12] = Females, TG Middle Tertile (>186 to ≤241.5 mg/dL)
# [13] = Males, HDL-C Highest Tertile (>42 to ≤107.5 mg/dL)
# [14] = Males, HDL-C Lowest Tertile (≥17 to ≤35.5 mg/dL)
# [15] = Males, HDL-C Middle Tertile (>35.5 to ≤42 mg/dL)
# [16] = Males, Highest tertile for baseline TG and lowest tertile for baseline HDL-C (No)
# [17] = Males, Highest tertile for baseline TG and lowest tertile for baseline HDL-C (Yes)
# [18] = Males, TG Highest Tertile (>253.5 to ≤830 mg/dL)
# [19] = Males, TG Lowest Tertile (≥81.25 to ≤191.5 mg/dL)
# [20] = Males, TG Middle Tertile (>191.5 to ≤253.5 mg/dL)
# [21] = Overall (Males and Females), Baseline hsCRP >2 mg/L
# [22] = Overall (Males and Females), Baseline hsCRP ≤2 mg/L
# [23] = Overall (Males and Females), HDL-C Highest Tertile (>43.5 to ≤107.5 mg/dL)
# [24] = Overall (Males and Females), HDL-C Lowest Tertile (≥17 to ≤36.5 mg/dL)
# [25] = Overall (Males and Females), HDL-C Middle Tertile (>36.5 to ≤43.5 mg/dL)
# [26] = Overall (Males and Females), Highest tertile for baseline TG and lowest tertile for baseline HDL-C (No)
# [27] = Overall (Males and Females), Highest tertile for baseline TG and lowest tertile for baseline HDL-C (Yes)
# [28] = Overall (Males and Females), TG Highest Tertile (>250 to ≤1401 mg/dL)
smiles,measurement,setting,value
"CC/C=C\C/C=C\C/C=C\C/C=C\C/C=C\CCCC(=O)OCC [AMR101, eicosapentaenoic acid ethyl ester]","Key secondary endpoint event, patients",<65 years subgroup,9.0%
same,"Key secondary endpoint, HR",<65 years subgroup,0.652
same,"Primary endpoint event, patients",<65 years subgroup,14.4%
same,"Primary endpoint, HR",<65 years subgroup,0.650
same,"Primary endpoint, patients with event (%)",Baseline HbA1c <6.5%,16.5%
same,"Time to primary endpoint, HR (95% CI) AMR101/Placebo",Baseline HbA1c <6.5%,0.793
same,"Time to primary endpoint, HR (95% CI) AMR101/Placebo",Baseline HbA1c ≥6.5%,0.701
same,"Primary endpoint, patients with event (%)",[1],18.2%
same,"Time to primary endpoint, HR (95% CI) AMR101/Placebo",[1],0.842
same,"Primary endpoint, patients with event (%)",[2],16.5%
same,"Time to primary endpoint, HR (95% CI) AMR101/Placebo",[2],0.691
same,"Primary endpoint, patients with event (%)",[3],(15.0) %
same,"Primary endpoint, patients with event n/N",[3],113/752
same,"Time to primary endpoint, HR (95% CI) AMR101/Placebo",[3],0.930
same,"Primary endpoint, patients with event (%)",[4],(10.0) %
same,"Primary endpoint, patients with event n/N",[4],41/409
same,"Time to primary endpoint, HR (95% CI) AMR101/Placebo",[4],0.621
same,"Primary endpoint, patients with event (%)",[5],(13.9) %
same,"Primary endpoint, patients with event n/N",[5],50/359
same,"Time to primary endpoint, HR (95% CI) AMR101/Placebo",[5],0.936
same,"Primary endpoint, patients with event (%)",[6],(16.7) %
same,"Primary endpoint, patients with event n/N",[6],71/426
same,"Time to primary endpoint, HR (95% CI) AMR101/Placebo",[6],0.894
same,"Primary endpoint, patients with event (%)",[7],(8.8) %
same,"Primary endpoint, patients with event n/N",[7],33/374
same,"Time to primary endpoint, HR (95% CI) AMR101/Placebo",[7],0.609
same,"Primary endpoint, patients with event (%)",[8],(13.7) %
same,"Primary endpoint, patients with event n/N",[8],59/431
same,"Time to primary endpoint, HR (95% CI) AMR101/Placebo",[8],0.755
same,"Primary endpoint, patients with event (%)",[9],(15.7) %
same,"Primary endpoint, patients with event n/N",[9],29/185
same,"Time to primary endpoint, HR (95% CI) AMR101/Placebo",[9],0.934
same,"Primary endpoint, patients with event (%)",[10],(12.3) %
same,"Primary endpoint, patients with event n/N",[10],46/375
same,"Time to primary endpoint, HR (95% CI) AMR101/Placebo",[10],0.734
same,"Primary endpoint, patients with event n/N",[11],49/396
same,"Time to primary endpoint, HR (95% CI) AMR101/Placebo",[11],0.728
same,"Primary endpoint, patients with event (%)",[12],(15.1) %
same,"Primary endpoint, patients with event n/N",[12],59/390
same,"Time to primary endpoint, HR (95% CI) AMR101/Placebo",[12],1.077
same,"Primary endpoint, patients with event (%)","Males, Baseline hsCRP >2 mg/L",(21.5) %
same,"Time to primary endpoint, HR (95% CI) AMR101/Placebo","Males, Baseline hsCRP >2 mg/L",0.772
same,"Primary endpoint, patients with event (%)","Males, Baseline hsCRP ≤2 mg/L",(16.4) %
same,"Time to primary endpoint, HR (95% CI) AMR101/Placebo","Males, Baseline hsCRP ≤2 mg/L",0.691
same,"Primary endpoint, patients with event (%)",[13],(20.5) %
same,"Primary endpoint, patients with event n/N",[13],187/913
same,"Time to primary endpoint, HR (95% CI) AMR101/Placebo",[13],0.857
same,"Primary endpoint, patients with event (%)",[14],(19.0) %
same,"Time to primary endpoint, HR (95% CI) AMR101/Placebo",[14],0.652
same,"Primary endpoint, patients with event (%)",[15],(16.9) %
same,"Primary endpoint, patients with event n/N",[15],160/945
same,"Time to primary endpoint, HR (95% CI) AMR101/Placebo",[15],0.717
same,"Primary endpoint, patients with event (%)",[16],(18.1) %
same,"Time to primary endpoint, HR (95% CI) AMR101/Placebo",[16],0.693
same,"Primary endpoint, patients with event (%)",[17],(19.9) %
same,"Primary endpoint, patients with event n/N",[17],90/453
same,"Time to primary endpoint, HR (95% CI) AMR101/Placebo",[17],0.632
same,"Primary endpoint, patients with event (%)",[18],(18.9) %
same,"Primary endpoint, patients with event n/N",[18],181/960
same,"Time to primary endpoint, HR (95% CI) AMR101/Placebo",[18],0.671
same,"Primary endpoint, patients with event (%)",[19],(19.0) %
same,"Primary endpoint, patients with event n/N",[19],185/972
same,"Primary endpoint, patients with event (%)",[20],(18.6) %
same,"Primary endpoint, patients with event n/N",[20],185/993
same,"Time to primary endpoint, HR (95% CI) AMR101/Placebo",[20],0.741
same,"Primary endpoint, patients with event (%)",[21],(19.2) %
same,"Time to primary endpoint, HR (95% CI) AMR101/Placebo",[21],0.813
same,"Primary endpoint, patients with event (%)",[22],(15.0) %
same,"Time to primary endpoint, HR (95% CI) AMR101/Placebo",[22],0.680
same,"Primary endpoint, patients with event (%)",[23],15.9%
same,"Time to primary endpoint, HR (95% CI) AMR101/Placebo",[23],0.812
same,"Primary endpoint, patients with event (%)",[24],18.1%
same,"Time to primary endpoint, HR (95% CI) AMR101/Placebo",[24],0.667
same,"Primary endpoint, patients with event (%)",[25],17.6%
same,"Time to primary endpoint, HR (95% CI) AMR101/Placebo",[25],0.800
same,"Primary endpoint, patients with event (%)",[26],(16.3) %
same,"Time to primary endpoint, HR (95% CI) AMR101/Placebo",[26],0.679
same,"Primary endpoint, patients with event (%)",[27],(19.1) %
same,"Primary endpoint, patients with event n/N",[27],118/619
same,"Time to primary endpoint, HR (95% CI) AMR101/Placebo",[27],0.670
same,"Primary endpoint, patients with event (%)",[28],16.9%
same,"Time to primary endpoint, HR (95% CI) AMR101/Placebo",[28],0.675
